Consider 30 compounds from US20090312288A1 (TAKEDA PHARMACEUTICAL COMPANY LIMITED, priority 2008, published 2009).

Molecules are shown by their SMILES. pIC50: −log10 of the molar value.

Sequence of Aurora B/INCENP (Q96GD4 whole entry): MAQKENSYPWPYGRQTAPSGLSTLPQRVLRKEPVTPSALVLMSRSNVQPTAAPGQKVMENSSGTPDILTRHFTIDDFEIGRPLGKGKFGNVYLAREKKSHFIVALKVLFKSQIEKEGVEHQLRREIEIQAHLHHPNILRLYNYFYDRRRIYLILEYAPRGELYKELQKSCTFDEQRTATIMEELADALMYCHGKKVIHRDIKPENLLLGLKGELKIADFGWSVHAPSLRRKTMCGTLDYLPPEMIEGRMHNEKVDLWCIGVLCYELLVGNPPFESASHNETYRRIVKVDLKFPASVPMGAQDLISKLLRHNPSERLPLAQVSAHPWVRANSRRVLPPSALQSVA
Sequence of Aurora B/INCENP (Q9NQS7 whole entry partner): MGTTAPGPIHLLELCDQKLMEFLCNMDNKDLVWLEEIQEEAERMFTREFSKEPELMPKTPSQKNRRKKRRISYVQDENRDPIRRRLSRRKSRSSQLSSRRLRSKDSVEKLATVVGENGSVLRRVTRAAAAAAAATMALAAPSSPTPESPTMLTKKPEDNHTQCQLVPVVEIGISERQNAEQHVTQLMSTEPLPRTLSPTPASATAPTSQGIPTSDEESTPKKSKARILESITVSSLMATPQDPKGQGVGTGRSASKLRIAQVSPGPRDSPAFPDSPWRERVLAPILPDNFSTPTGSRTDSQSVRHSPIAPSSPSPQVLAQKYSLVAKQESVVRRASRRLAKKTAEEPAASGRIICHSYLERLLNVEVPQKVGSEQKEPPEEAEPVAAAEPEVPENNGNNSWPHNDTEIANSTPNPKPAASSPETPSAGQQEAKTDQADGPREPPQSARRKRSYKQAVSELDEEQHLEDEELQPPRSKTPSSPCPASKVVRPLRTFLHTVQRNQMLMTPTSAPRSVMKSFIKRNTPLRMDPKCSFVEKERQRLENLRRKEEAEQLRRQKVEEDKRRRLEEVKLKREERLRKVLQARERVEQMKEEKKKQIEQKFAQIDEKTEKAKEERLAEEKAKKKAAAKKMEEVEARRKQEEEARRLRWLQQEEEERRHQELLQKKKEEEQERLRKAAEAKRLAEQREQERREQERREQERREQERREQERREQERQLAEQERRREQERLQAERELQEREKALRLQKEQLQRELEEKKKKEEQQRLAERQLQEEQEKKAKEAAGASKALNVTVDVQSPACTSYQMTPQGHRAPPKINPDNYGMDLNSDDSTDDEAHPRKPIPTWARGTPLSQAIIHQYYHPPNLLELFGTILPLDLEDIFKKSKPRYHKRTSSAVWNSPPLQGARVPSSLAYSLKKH

In the assay the target is Aurora B/INCENP (Homo sapiens, UniProt Q96GD4). Kind of assay: Determination of inhibition of AIK: Aurora B/INCENP direct fluorescence polarization (IMAP) assay. The format is biochemical. The following applies: 10 uM ATP, 0.8 nM Aurora B/INCENP; values given as bins; read-out: IC50 of Exemplified Compounds Against AIK B. On the procedure:
Detection of the reaction product is performed by addition of Progressive IMAP binding reagent (Molecular Devices). Reaction product may be determined quantitatively by FP using an Analyst HT plate reader (Molecular Devices) with an excitation wavelength at 485 nm and emission at 530 nm and using a Fluorescein 505 dichroic mirror.
The assay reaction may be initiated as follows: 2 ul of (3×) 300 nM Fl-Peptide/30 uM ATP was added to each well of the plate, followed by the addition of 2 ul of (3×) inhibitor (2 fold serial dilutions for 11 data points for each inhibitor) containing 15% DMSO. Two microliters of (3×) 2.4 nM AuroraB/INCENP solution may be added to initiate the reaction (final enzyme concentration was 0.8 nM for Aurora B/INCENP). The reaction mixture may then be incubated at room temperature for 45 min, and quenched and developed by addition of 20 ul of 1 to 400 diluted Progressive IMAP binding reagent in 1× proprietary Progressive IMAP binding buffer A. Fluorescence polarization readings of the resulting reaction mixtures may be measured after a 60-minute incubation at room temperature.
IC50 values may be calculated by non-linear curve fitting of the compound concentrations and fluorescent polarization values to the standard IC50 equation.
A general note: Polarisation of emitted light reports the rotation of a fluorescent probe.
Turning to `c1ccc(-c2cccc3[nH]c4ncccc4c23)cc1` [Compound 5, 5-phenyl-9H-pyrido[2,3-b]indole], the pIC50 (commonly the IC50 on a negative log10 scale, so that one unit is a factor of ten) is below 7.89.

On to `CS(=O)(=O)c1cccc(-c2cccc3[nH]c4ncccc4c23)c1` [Compound 8, 5-(3-(methylsulfonyl)phenyl)-9H-pyrido[2,3-b]indole], for which the pIC50 is below 7.89. Take `CCS(=O)(=O)c1cccc(-c2cccc3[nH]c4ncccc4c23)c1` [Compound 9, 5-(3-(ethylsulfonyl)phenyl)-9H-pyrido[2,3-b]indole]: the pIC50 is below 7.89. Turning to `Cc1cccc(-c2cccc3[nH]c4ncccc4c23)c1` [Compound 11, 5-m-tolyl-9H-pyrido[2,3-b]indole], the pIC50 is below 7.89.

On to `O=S(=O)(NC1CC1)c1cccc(-c2cccc3[nH]c4ncccc4c23)c1` [Compound 12, N-cyclopropyl-3-(9H-pyrido[2,3-b]indol-5-yl)benzenesulfonamide], for which the pIC50 was below 7.89. For the compound `CNS(=O)(=O)c1cc(-c2ccc(C)c3[nH]c4ncc(C)cc4c23)ccc1OC` [Compound 14, 5-(3,8-dimethyl-9H-pyrido[2,3-b]indol-5-yl)-2-methoxy-N-methylbenzenesulfonamide], the negative logarithm of the IC50 (pIC50) is above 8.40.

As to `CNS(=O)(=O)c1cccc(-c2ccc(C)c3[nH]c4ncc(C)cc4c23)c1` [Compound 15, 3-(3,8-dimethyl-9H-pyrido[2,3-b]indol-5-yl)-N-methylbenzenesulfonamide], the pIC50 is above 8.40. Regarding `Cc1cnc2[nH]c3c(C)ccc(-c4cccc(S(=O)(=O)N(C)C)c4)c3c2c1` [Compound 16, 3-(3,8-dimethyl-9H-pyrido[2,3-b]indol-5-yl)-N,N-dimethylbenzenesulfonamide], the pIC50 is 8.07 to 8.25. To `CCS(=O)(=O)c1cccc(-c2ccc(C)c3[nH]c4ncc(C)cc4c23)c1` [Compound 18, 5-(3-(ethylsulfonyl)phenyl)-3,8-dimethyl-9H-pyrido[2,3-b]indole] belongs 8.07 to 8.25. In the case of `Cc1cnc2[nH]c3c(C)ccc(-c4cccc(C(=O)NC5CC5)c4)c3c2c1` [Compound 20, N-cyclopropyl-3-(3,8-dimethyl-9H-pyrido[2,3-b]indol-5-yl)benzamide], the pIC50 is 8.26 to 8.40.

For `CC(=O)Nc1ccc(Sc2cccc3[nH]c4ncccc4c23)cc1` [Compound 21, N-(4-(9H-pyrido[2,3-b]indol-5-ylthio)phenyl)acetamide], the pIC50 is below 7.89.

Consider `c1ccc(Sc2cccc3[nH]c4ncccc4c23)cc1` [Compound 23, 5-(phenylthio)-9H-pyrido[2,3-b]indole], for which the pIC50 is below 7.89.

Take `Cc1cnc2[nH]c3c(C)ccc(SCc4ccccc4)c3c2c1` [Compound 25, 5-(benzylthio)-3,8-dimethyl-9H-pyrido[2,3-b]indole]: the pIC50 is below 7.89. `CCS(=O)(=O)c1cccc(-c2c[nH]c(=O)c3[nH]c4ncc(C)cc4c23)c1` [Compound 32, 5-(3-Ethanesulfonyl-phenyl)-3-methyl-7,9-dihydro-dipyrido[2,3-b;4′,3′-d]pyrrol-8-one]: the pIC50 was 8.07 to 8.25.

With `CCS(=O)(=O)c1cccc(-c2cnc(Cl)c3[nH]c4ncc(C)cc4c23)c1` [Compound 33, 8-Chloro-5-(3-ethanesulfonyl-phenyl)-3-methyl-9H-dipyrido[2,3-b;4′,3′-d]pyrrole], the pIC50 was 8.26 to 8.40.

For `CCS(=O)(=O)c1cccc(-c2cnc(NCCCN(C)C)c3[nH]c4ncc(C)cc4c23)c1` [Compound 41, N′-[5-(3-Ethanesulfonyl-phenyl)-3-methyl-9H-dipyrido[2,3-b;4′,3′-d]pyrrol-8-yl]-N,N-dimethyl-propane-1,3-diamine], the pIC50 was 8.07 to 8.25.

In the case of `CCS(=O)(=O)c1cccc(-c2cnc(NCCN(C)C)c3[nH]c4ncc(C)cc4c23)c1` [Compound 42, N′-[5-(3-Ethanesulfonyl-phenyl)-3-methyl-9H-dipyrido[2,3-b;4′,3′-d]pyrrol-8-yl]-N,N-dimethyl-ethane-1,2-diamine], the pIC50 was 7.89 to 8.07. Regarding `CCS(=O)(=O)c1cccc(-c2cnc(NCCCN3CCOCC3)c3[nH]c4ncc(C)cc4c23)c1` [Compound 43, [5-(3-Ethanesulfonyl-phenyl)-3-methyl-9H-dipyrido[2,3-b;4′,3′-d]pyrrol-8-yl]-(3-morpholin-4-yl-propyl)-amine], the pIC50 was 8.07 to 8.25. On to `CCS(=O)(=O)c1cccc(-c2cnc(NC3CCN(C)CC3)c3[nH]c4ncc(C)cc4c23)c1` [Compound 44, [5-(3-Ethanesulfonyl-phenyl)-3-methyl-9H-dipyrido[2,3-b;4′,3′-d]pyrrol-8-yl]-(1-methyl-piperidin-4-yl)-amine], for which the pIC50 is 7.89 to 8.07. The figure for `CCS(=O)(=O)c1cccc(-c2cnc(NCC3CCN(C)CC3)c3[nH]c4ncc(C)cc4c23)c1` [Compound 46, [5-(3-Ethanesulfonyl-phenyl)-3-methyl-9H-dipyrido[2,3-b;4′,3′-d]pyrrol-8-yl]-(1-methyl-piperidin-4-ylmethyl)-amine] is 7.89 to 8.07; for `CCS(=O)(=O)c1cccc(-c2cnc(C)c3[nH]c4ncc(C)cc4c23)c1` [Compound 47, 5-(3-Ethanesulfonyl-phenyl)-3,8-dimethyl-9H-dipyrido[2,3-b;4′,3′-d]pyrrole] it is 8.07 to 8.25; for `CCS(=O)(=O)c1cccc(-c2cnc(C#N)c3[nH]c4ncc(C)cc4c23)c1` [Compound 49, 5-(3-Ethanesulfonyl-phenyl)-3-methyl-9H-dipyrido[2,3-b;4′,3′-d]pyrrole-8-carbonitrile] it is 7.89 to 8.07. To `CCS(=O)(=O)c1cccc(-c2cnc(C(N)=O)c3[nH]c4ncc(C)cc4c23)c1` [Compound 50, 5-(3-Ethanesulfonyl-phenyl)-3-methyl-9H-dipyrido[2,3-b;4′,3′-d]pyrrole-8-carboxylic acid amide] belongs 8.07 to 8.25. The figure for `CCOc1ncc(-c2cccc(S(=O)(=O)CC)c2)c2c1[nH]c1ncc(C)cc12` [Compound 51, 5-(3-Ethanesulfonyl-phenyl)-8-ethoxy-3-methyl-9H-dipyrido[2,3-b;4′,3′-d]pyrrole] is 8.07 to 8.25. Consider `CCS(=O)(=O)c1cccc(-c2cnc(OCCCN(C)C)c3[nH]c4ncc(C)cc4c23)c1` [Compound 52, {3-[5-(3-Ethanesulfonyl-phenyl)-3-methyl-9H-dipyrido[2,3-b;4′,3′-d]pyrrol-8-yloxy]-propyl}-dimethyl-amine], for which the pIC50 was 7.89 to 8.07. As to `CCS(=O)(=O)c1cccc(-c2cnc(OCCO)c3[nH]c4ncc(C)cc4c23)c1` [Compound 53, 2-[5-(3-Ethanesulfonyl-phenyl)-3-methyl-9H-dipyrido[2,3-b;4′,3′-d]pyrrol-8-yloxy]-ethanol], the pIC50 was 8.26 to 8.40. In the case of `CCS(=O)(=O)c1cccc(-c2cnc(OCC3CCN(C)CC3)c3[nH]c4ncc(C)cc4c23)c1` [Compound 54, 5-(3-Ethanesulfonyl-phenyl)-3-methyl-8-(1-methyl-piperidin-4-ylmethoxy)-9H-dipyrido[2,3-b;4′,3′-d]pyrrole], the pIC50 is 7.89 to 8.07. `CCS(=O)(=O)c1cccc(-c2cnc(OCCCO)c3[nH]c4ncc(C)cc4c23)c1` [Compound 55, 3-[5-(3-Ethanesulfonyl-phenyl)-3-methyl-9H-dipyrido[2,3-b;4′,3′-d]pyrrol-8-yloxy]-propan-1-ol]: the pIC50 was above 8.40. Consider `CCS(=O)(=O)c1cccc(-c2cnc(OC[C@H](O)CO)c3[nH]c4ncc(C)cc4c23)c1` [Compound 56], for which the pIC50 was above 8.40. Regarding `CCS(=O)(=O)c1cccc(-c2cnc(OC[C@@H](O)CO)c3[nH]c4ncc(C)cc4c23)c1` [Compound 57], the pIC50 is 8.26 to 8.40.
